Test results taken from patent US20210154272A1, “NEUROMODULATING COMPOSITIONS AND RELATED THERAPEUTIC METHODS FOR THE TREATMENT OF CANCER BY MODULATING AN ANTI-CANCER IMMUNE RESPONSE” (Flagship Pioneering Innovations V, Inc., priority 2016, published 2021).

Key:
primary human T cells = assay: T cell activation and cytokine secretion assay (LEGENDplex); assay type: cell-based
Protocol: Peripheral blood mononuclear cells (PBMCs) were isolated from whole blood by ficoll density separation. Briefly, blood was diluted 1:2 with 0.5 mM EDTA solution in PBS, loaded onto a Ficoll-filled Leucosep tube (Greiner Bio-One), and centrifuged for 20 minutes at 1000×g. After centrifugation, the leukocyte/PBMC layer on top of the separation medium was collected and sequentially washed three times with 0.5 mM EDTA solution in PBS. T cells were isolated from PBMCs using magnetic bead-based separation following vendor specification, e.g., Biolegend MojoSort Human CD4/CD8 Naïve T Cell Isolation Kit protocol. In brief, the PBMCs were labeled with biotinylated antibodies against cell surface receptors for cells not in the population of interest. The labeled cells are then captured by streptavidin-coated magnetic beads and removed by magnetic incubation. The uncaptured cells that flow through the magnetic separation are predominantly comprised of the population of interest, in this instance CD3+ T cells. T cells were stained with a 5 μM solution of Tag-it Violet™ dye (BioLegend) for 20 minutes protected from light. The stain was quenched by incubating the cells in cell culture medium containing 10% FBS (complete media). Stained cells were plated on tissue culture plates and sub-maximally activated with concanavalin A (con A) added to the culture medium. Cells were plated at 0.1×10^6 cells well. […] Cells were collected at 24, 48, and 72 hrs. Supernatants were collected at 24, 48, and 72 hrs and cytokine secretion was analyzed by flow cytometry using a LEGENDplex assay (BioLegend). In brief, following manufacturer's protocol, beads pre-coated with antibodies specific to various cytokines were incubated with cell supernatant. […] The beads were then stained and the captured cytokine composition assessed by flow cytometry.

[1] = system: T cells in the lymph node; assay: Lymph node remodeling by hock injection, flow cytometry of lymph node cells; assay type: in vivo, C57BL/6J mice; settings: hock injection of Haloperidol 48.5 nmol followed by quinpirole 0.1 nmol; 24 hours
Protocol: 24 hours after hock injection, brachial lymph nodes (LN) were harvested in culture medium (RPMI+10% FBS). LNs were transferred to 24-well tissue culture plates containing 0.5 mL LN digestion buffer (RPMI, 2% FBS, collagenase D (3.3 mg/mL), and DNAse I (40 ug/mL)). LN capsules were manually opened with two syringe (26G) needles and the LNs were incubated in digestion buffer for 15 minutes. Digested LNs were filtered with a 40 μNA cell strainer and tissues were smashed with the plunger of a 5 mL syringe. Collected cells were washed in culture medium and plated for assays. Total number of viable cells were assessed by staining with viability dye eFluor 780 (eBioscience). Surface markers of various immune cell subsets were analyzed by staining the cells with antibodies for cell identity (CD3, CD4, CD8, CD19), for the inflammatory marker CD69, and the migratory marker CCR7. The cells were then assayed by flow cytometry.

[2] = system: macrophages differentiated from CD14+ monocytes; assay: Macrophage activation and cytokine secretion assay; assay type: cell-based, human; settings: dilutions from 10 μM to 1 nM
Protocol: Peripheral blood mononuclear cells (PBMCs) were isolated from whole blood by ficoll density separation. Briefly, blood was diluted 1:2 with 0.5 mM EDTA solution in PBS, loaded onto a Ficoll-filled Leucosep tube (Greiner Bio-One), and centrifuged for 20 minutes at 1000×g. After centrifugation, the leukocyte/PBMC layer was collected and sequentially washed three times with 0.5 mM EDTA solution in PBS.
Monocytes (CD14+) were isolated from PBMCs using magnetic bead-based separation following vendor specifications, e.g., Biolegend MojoSort Human CD14 Selection Kit protocol. In brief, PBMCs were labeled with biotinylated antibodies against cell surface receptors for cells not in the population of interest. The labeled cells are then captured by streptavidin-coated magnetic beads and removed by magnetic incubation. The uncaptured cells that flow through the magnetic separation are predominantly comprised of the population of interest, in this case CD14+ monocytes.
Monocytes were differentiated into macrophages by culturing in DMEM complete medium containing 10% FBS for seven days in the presence of 40 ng/mL human M-CSF. Media was changed on day 1 and day 4. On Day 4, macrophages were polarized to various subtypes as follows: M0—incubated with 40 ng/mL M-CSF; M1—cultured with 40 ng/mL M-CSF, 20 ng/mL IFNγ, and 50 ng/mL LPS; M2—incubated with 40 ng/mL M-CSF, 20 ng/mL 1L4, 20 ng/mL IL10, and 20 ng/mL TFGB. On day 7, cells were harvested by scraping them from the tissue culture plates and transferring them to 96-well plates.
Supernatants were collected at 24, 48, and 72 hrs and cytokine secretion was analyzed by flow cytometry using a LEGENDplex assay (BioLegend). In brief, following manufacturer's protocol, beads that are pre-coated with antibodies specific to various cytokines were incubated with cell supernatant. […] The beads were then stained and the captured cytokine composition assessed by flow cytometry.
M1 macrophage polarization is defined as increase in production of IL-12, TNF, IL-6, IL-8, IL-1B, MCP-1 and CCL2. Additionally, markers of M1 polarization that can be detected by RNA include Nos2. M2 polarization is defined as increase in IL-10 and/or a decrease in the M1 cytokines listed above. Additionally, markers of M2 polarization that can be detected by RNA include Arg1, IDO, PF4, CCL24, IL10, and IL4Ralpha.

[3] = system: Primary Natural Killer (NK) cells; assay: NK cell ADCC assay with trastuzumab-coated Her2 expressing target cells; assay type: cell-based, human; settings: for ADCC of NK cells treated with metaproterenol alone relative to NK cells pre-treated with this antagonist prior to the agonist: antagonist pre-treatment prior to metaproterenol
Protocol: Primary Natural Killer (NK) cells are isolated from human peripheral blood using a magnetic bead-based separation kit that negatively selects NK cells by sequestering other defined cell types (T, B, monocytes, etc.). Isolated NK cells are incubated with a target cell line, for example a Her2 expressing cancer cell line that has been pre-coated with trastuzumab, an anti-Her2 antibody, at a range of target-to-effector cell ratios. Following antibody-dependent cell cytotoxicity (ADCC)—antibody-mediated killing of the target cells by the NK cells, the number of surviving target cells is assessed by a fluorescent viability stain.

[4] = low sub-nanomolar concentrations, 72 hours post treatment
[5] = T cells from two different donors, multiple time points

Compound: NCCc1ccc(O)c(O)c1 [dopamine]
- production of the pro-survival cytokine IL-2 (primary human T cells; 24 and 48 hours post stimulation, nanomolar concentrations): increase
- production of the pro-inflammatory cytokine IL-5 (primary human T cells; [4]): increase
- production of the pro-inflammatory cytokine IL-6 (primary human T cells; [4]): increase
- production of the pro-inflammatory cytokine IL-10 (primary human T cells; [4]): increase
- production of the pro-inflammatory cytokine IL-13 (primary human T cells; [4]): increase
- production of the pro-inflammatory cytokine IFNγ (primary human T cells; low sub-nanomolar concentrations, 72 hours post treatment, con A sub-maximally activated T cells): increase

Compound: O=C(CCCN1CCC(O)(c2ccc(Cl)cc2)CC1)c1ccc(F)cc1 [haloperidol]
- effect of antagonist pre-treatment on the quinpirole-induced increase of CCR7+ T cells in the lymph node [1]: inhibited

Compound: CC(C)NCC(O)c1ccc(O)c(O)c1 (stereo not drawn) [isoproterenol]
- production of pro-inflammatory cytokine IFNγ (primary human T cells; T cells from two different donors, 72 hours (FIG. 6A)): decreased
- production of pro-inflammatory cytokine TNFα (primary human T cells; T cells from two different donors, 72 hours (FIG. 6B)): decreased
- production of pro-inflammatory cytokine IL-10 (primary human T cells; T cells from two different donors, 72 hours (FIG. 6C)): decreased
- amount of pro-inflammatory cytokine IL-10 (primary human T cells; [5]): decrease
- production of pro-inflammatory cytokine IFNγ (primary human T cells; [5]): decrease
- production of pro-inflammatory cytokine TNFα (primary human T cells; [5]): decrease
- transcript of NOS2 ([2]; M1 marker): decrease
- transcripts for Arg1 ([2]; M2 marker): increase
- transcripts for IL-10 ([2]; M2 marker): increase
- macrophage polarization (M1 or M2 phenotype) [2]: polarized toward an M2 phenotype

Compound: CC(C)NCC(O)c1cc(O)cc(O)c1 (stereo not drawn) [metaproterenol]
- ADCC induced by agonist-treated NK cells, compared with NK cells pre-treated with a beta adrenergic antagonist prior to the agonist ([3]; surviving target cells by fluorescent viability stain): significantly less ADCC

Compound: CC(C)(C)NCC(O)COc1cccc2c1CC(O)C(O)C2 (stereo not drawn) [nadolol]
- ADCC of NK cells treated with metaproterenol alone relative to NK cells pre-treated with this antagonist prior to the agonist [3]: significantly less ADCC

Compound: CC(C)NCC(O)COc1cccc2ccccc12 (stereo not drawn) [propranolol]
- ADCC of NK cells treated with metaproterenol alone relative to NK cells pre-treated with this antagonist prior to the agonist [3]: significantly less ADCC

Compound: neuropeptide Y
- cytokine IL-4 (primary human T cells; sub-nanomolar concentrations, 48 hours post-treatment): increase
